Source: patent publication US7714026B2, “Pharmaceutical composition containing bakuchiol for treating woman osteoporosis” (Sinphar Pharmaceutical Co., Ltd., priority 2004, dated 2010)
“Also recorded” adds a separate entry of the source.

Tested on: ovariectomized female Wistar rats (osteoporosis caused by estrogen deficiency)
Assay: Ovariectomized female rat model of osteoporosis caused by estrogen deficiency
Type: in vivo
Details: two months; for bone volume of proximal tibia vs OVX group: FIG. 1; for apparent bone density of tibia vs OVX group: FIG. 2; for erosion surface (ES/BS) of proximal tibia (bone resorption) vs OVX group: FIG. 3
Excerpt: The purpose of this example is to show the potency of bakuchiol in treating osteoporosis, wherein ovary of a female rat is removed to stimulate osteoporosis caused by estrogen deficiency.
The female Wistar rats of 16 weeks old (unless specified in the other experiment description) were obtained from the stock reared by the Animal breeding center, National Scientific Council in Taipei. These rats were grouped by weights matched in order to distribute the physiological response variation from rats evenly into each group. These rats were grouping as follows: • Baseline group fed with no drug added food (n=8) • Sham operation group fed with no drug added food (Sham) (n=10) • Ovariectomy operation group fed with no drug added food (OVX) (n=8) • Ovariectomy operation group fed with Drug A (5 mg/kg) added food (OVX+A) (n=9) • Ovariectomy operation group fed with Drug B (15 mg/kg) added food (OVX+B) (n=9)
Ovariectomy (removal of ovaries) operation: Ovariectomy was induced using a protocol similar to that described by Wronski et al (Wronski et al, Endocrinology, 123 (2), 681-686 ([…]))
During the experiments, the rats were housed in hanging grid cages in groups of two at 21° C. with a 12 hours dark cycle. Food (Rat-mouse diet III, adequate in 1% of calcium content and 1.2% of phosphate content, Purina, USA) was administered by paired feeding between the experimental and control groups. Pair-feeding was carried out by calculating the average amount of food intake in the Sham group. So give the same amount of food to the OVX, OVX+A (5 mg/kg), OVX+B (15 mg/kg) group animals the following day. These animals were fed with a period of two months except for the baseline group which were killed on the very day of doing ovariectomy or sham operation. Rats of OVX+A and OVX+B groups were fed with the usual food chuck but added certain amount of compound A and B in it respectively. Water was given ad libitum to all rats.
The test drug was weighted according to dose of 5 mg/kg and 15 mg/kg, and added into the usual food chuck powder and mixed with 10% starch paste. After fully mixed, these chuck powder were made into mass manually and dried by air flow oven. The food with added drug to rats was performed by single blind method.
These labeling and bone histomorphometry assessment were done based on standard procedure in bone research (Lin et al, Calcif. Tissue Int., 67, 373-377 (2000)). Specimen were prestained with Villanueva bone stain, then […] embedded in London resin. Undecalcified sections of 7 μm thick were cut using Jung-K microtome (Leica Ltd, USA) and treated with Villanueva stain for observation under light microscopy. Seven μm thick unstained sections were prepared for fluorescent microscopy and assessed with program Osteomeasure (3.0 version, Atlanta, USA). The bone volume (FIG. 1) and eroded surface parameters (FIG. 3) were obtained according to Lin et al. (Lin et al, Calcif. Tissue Int., 67, 373-377 (2000)). The experiment was performed under specific project licences from the Animal Center and IAACU, National Defense Medical Center, National Defense University, Taipei, Taiwan.
The whole tibia and femur were stripped off attached muscles and ligaments after sacrifice. An apparent bone density measurement was done based on Archimedes floating principle on an electronic balance set with densitometry frame (Danielsen et al., Calcif. Tissue Int., 52, 26-33 (1993)). The weight of bone measured in the air was marked as W-air. The weight of the same bone weighed in water will be marked as W-water. The apparent bone density was calculated as [W-air/(W-air minus W-water)](gm/cm^3) (FIG. 2, Bone apparent density of Tibia).

Q: How did the “bone volume of proximal tibia vs OVX group” value (OVX+A, 5 mg/kg in food) turn out when `C=C[C@@](C)(/C=C/c1ccc(O)cc1)CCC=C(C)C` [Bakuchiol, bakuchiol] was run?
A: increase in the bone volume

Q: And the “apparent bone density of tibia vs OVX group” value (OVX+A, 5 mg/kg in food)?
A: increase

Q: And the “erosion surface (ES/BS) of proximal tibia (bone resorption) vs OVX group” value (OVX+A, 5 mg/kg in food, 5 mg/kg)?
A: inhibiting the bone resorption; also recorded: inhibition of bone erosion (bone resorption)

Q: What about the “bone volume of proximal tibia vs OVX group” value (OVX+B, 15 mg/kg in food) of the same compound?
A: increase in the bone volume

Q: What about the “apparent bone density of tibia vs OVX group” value (OVX+B, 15 mg/kg in food) of the same compound?
A: increase

Q: And the “erosion surface (ES/BS) of proximal tibia (bone resorption) vs OVX group” value (OVX+B, 15 mg/kg in food)?
A: inhibition of bone erosion (bone resorption)
